Laboratory results taken from PubChem BioAssay AID588599 (Sanford-Burnham Center for Chemical Genomics, 2011).

These compounds were tested against Caspase-3 (Homo sapiens) (UniProt P42574) (assay: inhibition of recombinant caspase-3 activity – biochemical, luminescence, set 2, selectivity assay for SENP protease inhibitor project, SAR follow-up (AID 588599)). Conditions: recombinant caspase-3, Z-DEVD-aminoluciferin luminescence, 60 min;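 active = compounds blocking caspase-3 with a mean IC50 under a set limit, which marks them as not selective; inactive = the rest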.
Sequence of Caspase-3 (Homo sapiens) (P42574 28-227 limits assumed): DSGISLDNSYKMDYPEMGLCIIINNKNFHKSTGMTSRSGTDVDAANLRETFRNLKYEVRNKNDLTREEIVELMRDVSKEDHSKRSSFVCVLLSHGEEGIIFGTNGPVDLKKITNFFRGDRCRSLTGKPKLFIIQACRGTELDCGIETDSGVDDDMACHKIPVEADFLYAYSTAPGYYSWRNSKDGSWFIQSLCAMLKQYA

IC50, active:
Cc1cccc(-c2noc(/C=C/c3ccccc3)n2)c1 10.6 µM, CCCCc1ccc2nc(NC(=O)c3sccc3Cl)sc2c1 1.11 µM, Fc1ccc(/C=C/c2noc(-c3ccccc3I)n2)cc1 23.9 µM, O=C(Nc1nc2ccccc2s1)c1cc2ccccc2s1 0.515 µM
